Laboratory results published in PubChem BioAssay (NCI).
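Dose response: 5 concentrations. Exposure: 48 h. Format: 96-well plates. Endpoint: linear interpolation; highest concentration if not reached. GI50 = concentration required for 50% inhibition of growth. TGI: concentration producing complete growth inhibition.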

Assays:
Assay in all cases: inhibition of tumour cell growth, NCI panel, 48 h
786-0 renal = system: 786-0 renal
A498 renal = system: A498 renal
A549 NSCLC = system: A549 NSCLC
ACHN renal = system: ACHN renal
BT-549 breast = system: BT-549 breast
CAKI-1 renal = system: CAKI-1 renal
CCRF-CEM leukemia = system: CCRF-CEM leukemia
COLO 205 colon = system: COLO 205 colon
DU-145 prostate = system: DU-145 prostate
EKVX NSCLC = system: EKVX NSCLC
HCC-2998 colon = system: HCC-2998 colon
HCT-116 colon = system: HCT-116 colon
HCT-15 colon = system: HCT-15 colon
HL-60(TB) leukemia = system: HL-60(TB) leukemia
HOP-62 NSCLC = system: HOP-62 NSCLC
HS 578T breast = system: HS 578T breast
HT29 colon = system: HT29 colon
IGROV1 ovarian = system: IGROV1 ovarian
K-562 leukemia = system: K-562 leukemia
KM12 colon = system: KM12 colon
LOX IMVI melanoma = system: LOX IMVI melanoma
M14 melanoma = system: M14 melanoma
MALME-3M melanoma = system: MALME-3M melanoma
MCF7 breast = system: MCF7 breast
MDA-MB-231 breast = system: MDA-MB-231 breast
MDA-MB-435 = system: MDA-MB-435
MOLT-4 leukemia = system: MOLT-4 leukemia
NCI-H226 lung = system: NCI-H226 lung
NCI-H23 lung = system: NCI-H23 lung
NCI-H460 lung = system: NCI-H460 lung
NCI-H522 lung = system: NCI-H522 lung
NCI/ADR-RES ovarian = system: NCI/ADR-RES ovarian
OVCAR-3 ovarian = system: OVCAR-3 ovarian
OVCAR-4 ovarian = system: OVCAR-4 ovarian
OVCAR-5 ovarian = system: OVCAR-5 ovarian
OVCAR-8 ovarian = system: OVCAR-8 ovarian
PC-3 prostate = system: PC-3 prostate
RXF 393 renal = system: RXF 393 renal
SF-268 CNS = system: SF-268 CNS
SF-295 CNS = system: SF-295 CNS
SF-539 CNS = system: SF-539 CNS
SK-MEL-2 melanoma = system: SK-MEL-2 melanoma
SK-MEL-28 melanoma = system: SK-MEL-28 melanoma
SK-MEL-5 melanoma = system: SK-MEL-5 melanoma
SK-OV-3 ovarian = system: SK-OV-3 ovarian
SN12C renal = system: SN12C renal
SNB-19 CNS = system: SNB-19 CNS
SNB-75 CNS = system: SNB-75 CNS
SR leukemia = system: SR leukemia
SW-620 colon = system: SW-620 colon
T-47D breast = system: T-47D breast
TK-10 renal = system: TK-10 renal
U251 CNS = system: U251 CNS
UACC-257 melanoma = system: UACC-257 melanoma
UACC-62 melanoma = system: UACC-62 melanoma
UO-31 renal = system: UO-31 renal

## Oc1ccc(/C=C/c2ccc(O)cc2)cc1
786-0 renal
  GI50: 2.17 µM
  TGI: 7.93 µM
A498 renal
  GI50: 10.3 µM
  TGI: 99.6 µM
A549 NSCLC
  GI50: 2.69 µM
  TGI: > 38.5 µM
ACHN renal
  GI50: 1.25 µM
  TGI: > 61.7 µM
BT-549 breast
  GI50: 1.26 µM
  TGI: > 90 µM
CAKI-1 renal
  GI50: 3.5 µM
  TGI: > 24.1 µM
CCRF-CEM leukemia
  GI50: 0.219 µM
  TGI: 0.761 µM
COLO 205 colon
  GI50: > 55.1 µM
  TGI: > 100 µM
DU-145 prostate
  GI50: 3.84 µM
  TGI: 44 µM
EKVX NSCLC
  GI50: 9.15 µM
  TGI: > 100 µM
HCC-2998 colon
  GI50: 3.59 µM
  TGI: 18 µM
HCT-116 colon
  GI50: 4.28 µM
  TGI: > 100 µM
HCT-15 colon
  GI50: 3.13 µM
  TGI: > 100 µM
HL-60(TB) leukemia
  GI50: 0.252 µM
  TGI: 0.738 µM
HOP-62 NSCLC
  GI50: 5.59 µM
  TGI: > 96.5 µM
HS 578T breast
  GI50: 4.09 µM
  TGI: > 83.9 µM
HT29 colon
  GI50: 29 µM
  TGI: > 100 µM
IGROV1 ovarian
  GI50: 0.72 µM
K-562 leukemia
  GI50: 2.65 µM
  TGI: > 100 µM
KM12 colon
  GI50: 2.73 µM
  TGI: > 80.7 µM
LOX IMVI melanoma
  GI50: 2.85 µM
  TGI: 20.4 µM
M14 melanoma
  GI50: 3.82 µM
  TGI: 58.9 µM
MALME-3M melanoma
  GI50: 18.1 µM
  TGI: > 100 µM
MCF7 breast
  GI50: 4.41 µM
  TGI: > 100 µM
MDA-MB-231 breast
  GI50: 2.78 µM
  TGI: > 100 µM
MDA-MB-435
  GI50: 6.64 µM
  TGI: > 100 µM
MOLT-4 leukemia
  GI50: 2.18 µM
  TGI: 45.1 µM
NCI-H226 lung
  GI50: 5.63 µM
  TGI: > 100 µM
NCI-H23 lung
  GI50: 3.82 µM
  TGI: > 90.5 µM
NCI-H460 lung
  GI50: 3.37 µM
  TGI: > 100 µM
NCI-H522 lung
  GI50: 0.465 µM
  TGI: 1.71 µM
NCI/ADR-RES ovarian
  GI50: 3.25 µM
  TGI: > 95.4 µM
OVCAR-3 ovarian
  GI50: 0.971 µM
  TGI: > 92.1 µM
OVCAR-4 ovarian
  GI50: 8.78 µM
  TGI: > 100 µM
OVCAR-5 ovarian
  GI50: 28.9 µM
  TGI: > 100 µM
OVCAR-8 ovarian
  GI50: 2.44 µM
  TGI: > 61.1 µM
PC-3 prostate
  GI50: 4.02 µM
  TGI: > 100 µM
RXF 393 renal
  GI50: 2.94 µM
  TGI: > 100 µM
SF-268 CNS
  GI50: 2.15 µM
  TGI: > 94.7 µM
SF-295 CNS
  GI50: 5.91 µM
  TGI: > 84.7 µM
SF-539 CNS
  GI50: 2.45 µM
  TGI: 8.8 µM
SK-MEL-2 melanoma
  GI50: 9.79 µM
  TGI: > 89.2 µM
SK-MEL-28 melanoma
  GI50: 30.1 µM
  TGI: > 100 µM
SK-MEL-5 melanoma
  GI50: 3.04 µM
  TGI: > 68.3 µM
SK-OV-3 ovarian
  GI50: 16.1 µM
  TGI: > 100 µM
SN12C renal
  GI50: 2.97 µM
  TGI: > 100 µM
SNB-19 CNS
  GI50: 18.2 µM
  TGI: > 100 µM
SNB-75 CNS
  GI50: 1.89 µM
  TGI: > 100 µM
SR leukemia
  GI50: 0.204 µM
  TGI: 0.703 µM
SW-620 colon
  GI50: 7.52 µM
  TGI: > 100 µM
T-47D breast
  GI50: 5.7 µM
  TGI: > 100 µM
TK-10 renal
  GI50: 9.62 µM
  TGI: > 100 µM
U251 CNS
  GI50: 3.09 µM
  TGI: > 100 µM
UACC-257 melanoma
  GI50: 18.6 µM
  TGI: > 100 µM
UACC-62 melanoma
  GI50: 2.36 µM
  TGI: 16.9 µM
UO-31 renal
  GI50: 1.38 µM
  TGI: > 100 µM
